Measured values reported in ChEMBL document CHEMBL6083240, “Design, synthesis and biological evaluation of arylpropylamine derivatives as potential multi-target antidepressants” (Bioorg Med Chem, 2024).
pIC50, pKi: −log10 of the molar value. Activity calls are given as the source filed them. The rule behind the calls is not given here.

What was measured:
[1] = target: Sodium-dependent serotonin transporter (Rattus norvegicus, UniProt P31652); assay: Displacement of [3H]-paroxetine from SERT in rat cerebral cortex incubated for 10 mins by liquid scintillation counting method; type: tissue-based
Chain of Sodium-dependent serotonin transporter (P31652 whole entry): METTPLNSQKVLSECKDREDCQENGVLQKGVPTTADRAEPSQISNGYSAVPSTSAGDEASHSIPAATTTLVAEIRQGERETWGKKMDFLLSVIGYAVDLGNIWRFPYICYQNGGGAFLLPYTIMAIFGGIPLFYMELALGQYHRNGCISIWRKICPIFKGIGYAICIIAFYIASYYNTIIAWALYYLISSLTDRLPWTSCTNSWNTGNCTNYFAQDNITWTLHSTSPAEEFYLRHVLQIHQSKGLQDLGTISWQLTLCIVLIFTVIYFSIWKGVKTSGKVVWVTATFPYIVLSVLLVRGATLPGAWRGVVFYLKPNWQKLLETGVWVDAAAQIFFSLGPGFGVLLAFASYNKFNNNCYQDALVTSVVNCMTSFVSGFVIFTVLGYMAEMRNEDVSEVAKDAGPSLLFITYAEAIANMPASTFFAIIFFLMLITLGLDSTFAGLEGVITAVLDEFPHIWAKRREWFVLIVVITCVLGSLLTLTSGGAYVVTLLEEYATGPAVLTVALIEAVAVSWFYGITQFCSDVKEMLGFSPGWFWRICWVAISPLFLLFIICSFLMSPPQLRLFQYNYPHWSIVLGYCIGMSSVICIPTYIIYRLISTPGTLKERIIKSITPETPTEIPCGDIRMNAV

[2] = target: T1, 5-hydroxytryptamine receptor 2C (Rattus norvegicus, UniProt P08909); assay: Displacement of [3H]-mesulergine from 5-HT2C in rat cerebral cortex incubated for 15 mins by liquid scintillation counting method; type: tissue-based
T1 sequence (P08909 whole entry): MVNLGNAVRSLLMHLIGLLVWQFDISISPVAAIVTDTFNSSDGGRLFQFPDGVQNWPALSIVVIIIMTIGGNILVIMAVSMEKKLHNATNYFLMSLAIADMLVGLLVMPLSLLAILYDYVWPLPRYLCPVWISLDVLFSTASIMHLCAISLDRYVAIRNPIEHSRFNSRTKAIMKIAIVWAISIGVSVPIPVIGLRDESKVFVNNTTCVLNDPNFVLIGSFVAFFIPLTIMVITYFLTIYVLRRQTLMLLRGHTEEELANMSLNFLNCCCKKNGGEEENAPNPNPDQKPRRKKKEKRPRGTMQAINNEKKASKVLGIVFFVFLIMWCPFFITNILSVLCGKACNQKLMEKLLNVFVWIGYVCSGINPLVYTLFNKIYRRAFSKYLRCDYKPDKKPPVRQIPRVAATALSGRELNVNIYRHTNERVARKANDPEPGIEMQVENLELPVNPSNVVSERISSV

[3] = target: T2, 5-hydroxytryptamine receptor 2A (Homo sapiens, UniProt P28223); assay: Antagonist activity at 5-HT2A in HEK293 cells incubated for 60 mins by FLIPR assay; type: cell-based
T2 sequence (P28223 whole entry): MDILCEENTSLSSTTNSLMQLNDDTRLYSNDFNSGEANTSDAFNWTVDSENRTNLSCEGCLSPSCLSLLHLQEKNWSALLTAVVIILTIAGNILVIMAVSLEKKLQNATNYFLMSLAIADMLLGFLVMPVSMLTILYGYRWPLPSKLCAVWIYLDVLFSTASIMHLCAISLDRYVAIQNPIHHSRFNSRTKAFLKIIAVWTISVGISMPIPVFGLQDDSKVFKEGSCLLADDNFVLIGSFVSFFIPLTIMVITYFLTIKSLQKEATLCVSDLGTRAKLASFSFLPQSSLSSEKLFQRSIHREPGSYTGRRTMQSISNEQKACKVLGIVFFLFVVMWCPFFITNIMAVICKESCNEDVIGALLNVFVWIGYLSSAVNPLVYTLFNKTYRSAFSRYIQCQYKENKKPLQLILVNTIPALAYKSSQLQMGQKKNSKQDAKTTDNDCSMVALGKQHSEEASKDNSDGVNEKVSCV

[4] = target: T3, 5-hydroxytryptamine receptor 2C (Homo sapiens) (UniProt P28335); assay: Agonist activity at 5-HT2C in HEK293 cells at 10 uM incubated for 60 mins by FLIPR assay relative to control; type: functional, cell-based; settings: filed as agonist
T3 sequence (whole entry): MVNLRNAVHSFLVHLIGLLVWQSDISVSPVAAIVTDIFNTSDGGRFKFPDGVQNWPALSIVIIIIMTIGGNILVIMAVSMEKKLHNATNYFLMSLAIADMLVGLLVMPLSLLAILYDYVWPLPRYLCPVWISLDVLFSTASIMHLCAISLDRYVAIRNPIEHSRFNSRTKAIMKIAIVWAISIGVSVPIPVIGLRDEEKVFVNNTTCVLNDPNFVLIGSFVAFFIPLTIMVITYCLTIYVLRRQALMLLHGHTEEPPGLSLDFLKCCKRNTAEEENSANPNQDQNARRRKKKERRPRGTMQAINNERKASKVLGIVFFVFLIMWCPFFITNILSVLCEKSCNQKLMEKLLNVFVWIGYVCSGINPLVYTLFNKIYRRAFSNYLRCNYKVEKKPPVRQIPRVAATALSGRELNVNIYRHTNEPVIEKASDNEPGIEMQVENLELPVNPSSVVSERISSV

Histamine H2 receptor = Histamine H2 receptor (Homo sapiens, UniProt P25021); assay: Binding affinity to H2 receptor (unknown origin)
[5] = target: T2, 5-hydroxytryptamine receptor 2A; assay: Antagonist activity at 5-HT2A in HEK293 cells at 10 uM incubated for 60 mins by FLIPR assay relative to control; type: cell-based; parameters: scale not given: the % may be the effect or the level left; settings: filed as antagonist
[6] = target: 5-hydroxytryptamine receptor 7 (Homo sapiens, UniProt P34969); assay: Binding affinity to 5-HT7 receptor (unknown origin)
Chain of 5-hydroxytryptamine receptor 7 (P34969 whole entry): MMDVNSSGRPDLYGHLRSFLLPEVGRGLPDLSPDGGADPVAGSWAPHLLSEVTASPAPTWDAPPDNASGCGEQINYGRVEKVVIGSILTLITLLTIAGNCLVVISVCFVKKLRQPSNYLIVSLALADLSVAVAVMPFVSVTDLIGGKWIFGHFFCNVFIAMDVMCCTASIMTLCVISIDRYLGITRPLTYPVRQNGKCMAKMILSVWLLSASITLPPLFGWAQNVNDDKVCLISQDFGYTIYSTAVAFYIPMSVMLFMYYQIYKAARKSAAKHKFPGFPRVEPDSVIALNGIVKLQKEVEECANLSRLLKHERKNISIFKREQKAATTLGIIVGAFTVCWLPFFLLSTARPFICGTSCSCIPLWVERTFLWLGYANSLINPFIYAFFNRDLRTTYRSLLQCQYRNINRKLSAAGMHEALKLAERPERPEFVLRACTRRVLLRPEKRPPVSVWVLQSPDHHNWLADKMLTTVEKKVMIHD

[7] = target: Sodium-dependent serotonin transporter (Rattus norvegicus) (UniProt P31652); assay: Agonist activity at rat cerebral cortex membrane SERT at 10 uM incubated for 10 mins in presence of [3H]5-HT relative to control; type: cell membranes
Chain of Sodium-dependent serotonin transporter (Rattus norvegicus) (P31652 whole entry): as the sequence (P31652 whole entry) above

[8] = target: Muscarinic acetylcholine receptor M2 (Homo sapiens, UniProt P08172); assay: Binding affinity to M2 receptor (unknown origin)
[9] = target: Sigma intracellular receptor 2 (Homo sapiens, UniProt Q5BJF2); assay: Binding affinity to sigma 2 receptor (unknown origin)
Chain of Sigma intracellular receptor 2 (Q5BJF2 whole entry): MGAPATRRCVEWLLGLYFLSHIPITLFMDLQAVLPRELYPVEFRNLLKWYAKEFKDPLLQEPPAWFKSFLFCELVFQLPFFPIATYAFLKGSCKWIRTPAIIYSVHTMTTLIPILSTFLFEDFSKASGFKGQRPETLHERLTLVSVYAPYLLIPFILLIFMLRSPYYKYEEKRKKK

Mus musculus [10] = assay: Antidepressant activity in IG dosed Kunming mouse assessed as decrease in immobility time by measuring minimal effective dose by tail suspension test; type: functional
Mus musculus [11] = assay: Antidepressant activity in Kunming mouse chronic unpredictable mild stress model assessed as increase in sucrose preference at 4 mg/kg, IG measured after 2 weeks; type: functional, organism-based
[12] = MRTlast in CD1 mouse at 2 mg/kg, iv measured upto 10 hrs by LC-MS analysis; type: ADME, organism-based; settings: in vivo
[13] = Cmax in CD1 mouse at 2 mg/kg, iv measured upto 10 hrs by LC-MS analysis; type: ADME, organism-based; settings: in vivo
[14] = target: Glutamate [NMDA] receptor; assay: Binding affinity to NMDA receptor (unknown origin); type: protein-complex assay, Homo sapiens
histamine H1 receptor = assay: Displacement of [3H]-pyrilamine from H1 receptor in guinea pig cerebellum membrane incubated for 60 mins by liquid scintillation counting method; type: toxicity, cell membranes, Cavia porcellus; settings: probe [3H]-pyrilamine
[15] = Tmax in CD1 mouse at 15 mg/kg, po measured upto 24 hrs by LC-MS analysis; type: ADME, organism-based; settings: in vivo
Transporter = Transporter (Rattus norvegicus, UniProt Q63380); assay: Displacement of [3H]-nisoxetine from NET in rat hippocampal membrane incubated for 8 hrs by liquid scintillation counting method; type: cell membranes, Hippocampus
Chain of Transporter (Q63380 whole entry): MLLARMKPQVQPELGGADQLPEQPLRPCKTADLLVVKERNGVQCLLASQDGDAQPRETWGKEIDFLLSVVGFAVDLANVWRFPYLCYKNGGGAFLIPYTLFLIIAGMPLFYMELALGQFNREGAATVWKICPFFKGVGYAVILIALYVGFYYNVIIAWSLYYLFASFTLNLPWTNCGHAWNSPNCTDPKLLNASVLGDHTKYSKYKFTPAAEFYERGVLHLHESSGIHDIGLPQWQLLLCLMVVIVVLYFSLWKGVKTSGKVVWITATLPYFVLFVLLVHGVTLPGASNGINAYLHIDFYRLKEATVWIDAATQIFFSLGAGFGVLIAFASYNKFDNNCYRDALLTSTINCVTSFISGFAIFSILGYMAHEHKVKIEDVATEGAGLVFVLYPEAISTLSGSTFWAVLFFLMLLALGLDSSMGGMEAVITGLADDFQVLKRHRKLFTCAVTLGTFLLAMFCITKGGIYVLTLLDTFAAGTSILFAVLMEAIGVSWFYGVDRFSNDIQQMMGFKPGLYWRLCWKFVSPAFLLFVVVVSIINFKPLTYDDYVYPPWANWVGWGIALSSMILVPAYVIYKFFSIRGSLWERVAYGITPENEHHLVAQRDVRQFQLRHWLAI

[16] = (§1) In vivo inhibition of 5-HT2A in po dosed DOI-induced Kunming mouse assessed as reduction in head twitch response pretreated for 60 mins followed by DOI induction and measured for 20 mins; type: functional; settings: 1.333 h, time 80 min
Mus musculus [17] = assay: as §1; type: functional; settings: time 80.0 min
[18] = target: Muscarinic acetylcholine receptor M4 (Homo sapiens, UniProt P08173); assay: Binding affinity to M4 receptor (unknown origin)
Chain of Muscarinic acetylcholine receptor M4 (P08173 whole entry): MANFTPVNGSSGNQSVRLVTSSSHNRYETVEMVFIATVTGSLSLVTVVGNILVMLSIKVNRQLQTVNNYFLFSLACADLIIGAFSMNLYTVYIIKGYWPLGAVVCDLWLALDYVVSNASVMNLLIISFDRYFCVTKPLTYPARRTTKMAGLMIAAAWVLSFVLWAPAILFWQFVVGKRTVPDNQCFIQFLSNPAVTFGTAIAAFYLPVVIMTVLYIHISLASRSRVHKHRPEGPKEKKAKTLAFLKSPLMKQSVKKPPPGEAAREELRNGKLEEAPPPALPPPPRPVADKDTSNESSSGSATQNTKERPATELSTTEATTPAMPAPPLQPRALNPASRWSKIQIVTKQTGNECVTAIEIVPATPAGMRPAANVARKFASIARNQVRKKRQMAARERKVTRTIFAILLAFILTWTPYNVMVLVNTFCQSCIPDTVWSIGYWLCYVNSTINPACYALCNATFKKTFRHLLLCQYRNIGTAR

Histamine H3 receptor = Histamine H3 receptor (Homo sapiens, UniProt Q9Y5N1); assay: Binding affinity to H3 receptor (unknown origin)
Chain of Histamine H3 receptor (Q9Y5N1 whole entry): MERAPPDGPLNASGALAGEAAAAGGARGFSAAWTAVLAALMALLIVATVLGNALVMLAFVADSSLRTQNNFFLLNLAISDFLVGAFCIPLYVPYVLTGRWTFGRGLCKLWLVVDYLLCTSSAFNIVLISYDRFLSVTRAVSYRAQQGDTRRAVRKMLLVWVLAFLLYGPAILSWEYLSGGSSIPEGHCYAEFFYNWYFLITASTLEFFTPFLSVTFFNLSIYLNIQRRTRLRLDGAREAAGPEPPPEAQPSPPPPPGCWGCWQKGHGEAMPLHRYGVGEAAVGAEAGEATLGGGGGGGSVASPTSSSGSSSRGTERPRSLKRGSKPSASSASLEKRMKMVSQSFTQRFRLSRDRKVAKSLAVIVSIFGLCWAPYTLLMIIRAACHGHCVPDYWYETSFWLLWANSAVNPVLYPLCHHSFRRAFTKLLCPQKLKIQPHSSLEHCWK

[19] = target: Sigma non-opioid intracellular receptor 1 (Homo sapiens, UniProt Q99720); assay: Binding affinity to sigma 1 receptor (unknown origin)
Chain of Sigma non-opioid intracellular receptor 1 (Q99720 whole entry): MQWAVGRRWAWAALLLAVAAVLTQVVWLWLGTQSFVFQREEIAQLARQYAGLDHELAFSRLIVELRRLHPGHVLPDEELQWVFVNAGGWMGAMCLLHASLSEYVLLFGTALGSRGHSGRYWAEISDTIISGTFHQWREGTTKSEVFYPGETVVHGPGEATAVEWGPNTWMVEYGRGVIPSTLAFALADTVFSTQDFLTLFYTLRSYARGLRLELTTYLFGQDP

[20] = Half-life in CD1 mouse at 15 mg/kg, po measured upto 24 hrs by LC-MS analysis; type: ADME, organism-based; settings: in vivo
[21] = target: 5-hydroxytryptamine receptor 2C (Homo sapiens, UniProt P28335); assay: Antagonist activity at 5-HT2C in HEK293 cells incubated for 60 mins by FLIPR assay; type: cell-based
[22] = target: T2, 5-hydroxytryptamine receptor 2A; assay: Agonist activity at 5-HT2A in HEK293 cells at 10 uM incubated for 60 mins by FLIPR assay relative to control; type: functional, cell-based; settings: filed as agonist
[23] = target: Alpha-2A adrenergic receptor (Homo sapiens, UniProt P08913); assay: Binding affinity to alpha-2 adrenergic receptor (unknown origin)
Chain of Alpha-2A adrenergic receptor (P08913 whole entry): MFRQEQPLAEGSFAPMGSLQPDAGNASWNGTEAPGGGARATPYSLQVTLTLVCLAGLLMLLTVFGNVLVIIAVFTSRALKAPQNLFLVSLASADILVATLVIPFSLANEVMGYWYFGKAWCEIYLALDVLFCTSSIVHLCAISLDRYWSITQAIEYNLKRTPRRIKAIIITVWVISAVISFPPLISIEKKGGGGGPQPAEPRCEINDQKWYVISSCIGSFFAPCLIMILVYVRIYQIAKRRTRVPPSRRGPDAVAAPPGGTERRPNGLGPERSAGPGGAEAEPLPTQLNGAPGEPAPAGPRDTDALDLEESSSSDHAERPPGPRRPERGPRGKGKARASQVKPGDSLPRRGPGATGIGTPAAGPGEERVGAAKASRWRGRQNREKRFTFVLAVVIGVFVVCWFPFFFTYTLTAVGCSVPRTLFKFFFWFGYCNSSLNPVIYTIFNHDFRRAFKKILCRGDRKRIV

Mus musculus [24] = assay: Antidepressant activity in Kunming mouse assessed as effect on spontaneous locomotor activity by measuring total travel distance at 7.5 to 60 mg/kg, po administered for 60 mins and measured for 15 mins; type: functional, organism-based; settings: dose lower […], dose upper 60.0 mg/kg
[25] = Acute toxicity in po dosed Sprague-Dawley rat assessed as mortality rate measured after 24 hrs; type: organism-based; settings: in vivo
Rattus norvegicus = assay: Antidepressant activity against ig dosed ACTH-induced treatment resistant depression in Sprague-Dawley rat model assessed as reduction in immobility time by forced swimming test; type: functional; settings: po
[26] = target: Transporter (Rattus norvegicus) (UniProt Q63380); assay: Agonist activity at rat cerebral cortex membrane NET at 10 uM incubated for 10 mins in presence of [3H]-NE relative to control; type: cell membranes
Chain of Transporter (Rattus norvegicus) (Q63380 as listed by the source): as the sequence (Q63380 whole entry) above

## CN(C)CC[C@@H](Oc1cccc2c1OCO2)c1ccc(F)cc1.O=C(O)C(=O)O
[1]
  pKi: 8.24
[2]
  pKi: 7.80
[3]
  pIC50: 7.44
[4]
  Activity: 18.1%
Histamine H2 receptor
  pKi: < 6.00
[5]
  Activity: 100%
[6]
  pKi: < 6.00
[7]
  Activity: 2.2%
[8]
  pKi: < 6.00
[9]
  pKi: < 6.00
Mus musculus [10]
  Activity: Dose-dependent-effect
Mus musculus [10]; po, read-out: MED
  minimal effective dose: 6.4 mg/kg
Mus musculus [11]
  Activity: Active
[12]
  MRT last at 10 h: 1.1 h
[13]
  Cmax: 420 ng/mL
[14]
  pKi: < 6.00
Histamine H1 receptor
  Ki at 60 min: 1000 nM
[15]
  Tmax: 0.5 h
Transporter
  pKi: 8.64
[16]
  ED50: 1.07 mg/kg
Mus musculus [17]
  Activity: Dose-dependent-effect
[18]
  pKi: < 6.00
Histamine H3 receptor
  pKi: < 6.00
[19]
  pKi: < 6.00
[20]
  half-life: 1.8 h
[21]
  pIC50: 7.06
[22]
  Activity: 103%
[23]
  pKi: < 6.00
Mus musculus [24]
  Activity: inactive
[25]
  LD50 at 24 h: 560 mg/kg
Rattus norvegicus
  ED50: 23.1 mg/kg
[26]
  Activity: 5.6%
